Experimental data reported in patent US4701458A (priority 1985, dated 1987).
Several values for one entry are separate records, joined by “and”; a condition that tells them apart may be missing. Identical values can stand only once. Entries after “also recorded” stand apart in the source; their conditions may differ. Like-named read-outs stand apart in the source and are kept apart here.

Tests used:
[1] = test system: ST; details: cited from earlier work
[2] = biological target: guanylate cyclase (Rattus norvegicus, UniProt P23897); test: biochemical; set-up: species or system Sprague-Dawley rat; details: for % Inhibition of ST-activated guanylate cyclase activity: ST-activated (6 units/ml); for % Inhibition of ST-activated guanylate cyclase activity / inhibition at 1000 µM: 1.0 mM; for inhibition at 10000 µM: 10 mM; for inhibition at 100 µM: 0.1 mM
[3] = test system: basal intestinal fluid secretion; set-up: species or system suckling mice; details: mouse, in vivo
[4] = test system: Escherichia coli heat-stable enterotoxin (ST)-induced intestinal fluid secretion; assay type: in vivo, suckling mice
[5] = test system: 8-bromo cyclic GMP-induced intestinal fluid secretion; set-up: species or system suckling mice; details: mouse, in vivo
[6] = test system: guanylate cyclase; details: cited from earlier work
[7] = read-out: % Inhibition of ST-activated guanylate cyclase activity, ST-activated (6 units/ml)
[8] = read-out: % Inhibition of basal guanylate cyclase activity, basal
[9] = read-out: inhibition of ST-activated guanylate cyclase activity, ST-activated (6 ST units/ml)
[10] = read-out: inhibition of basal guanylate cyclase activity, basal

Sequence of guanylate cyclase (Rattus norvegicus, UniProt P23897) (P23897 23-1072): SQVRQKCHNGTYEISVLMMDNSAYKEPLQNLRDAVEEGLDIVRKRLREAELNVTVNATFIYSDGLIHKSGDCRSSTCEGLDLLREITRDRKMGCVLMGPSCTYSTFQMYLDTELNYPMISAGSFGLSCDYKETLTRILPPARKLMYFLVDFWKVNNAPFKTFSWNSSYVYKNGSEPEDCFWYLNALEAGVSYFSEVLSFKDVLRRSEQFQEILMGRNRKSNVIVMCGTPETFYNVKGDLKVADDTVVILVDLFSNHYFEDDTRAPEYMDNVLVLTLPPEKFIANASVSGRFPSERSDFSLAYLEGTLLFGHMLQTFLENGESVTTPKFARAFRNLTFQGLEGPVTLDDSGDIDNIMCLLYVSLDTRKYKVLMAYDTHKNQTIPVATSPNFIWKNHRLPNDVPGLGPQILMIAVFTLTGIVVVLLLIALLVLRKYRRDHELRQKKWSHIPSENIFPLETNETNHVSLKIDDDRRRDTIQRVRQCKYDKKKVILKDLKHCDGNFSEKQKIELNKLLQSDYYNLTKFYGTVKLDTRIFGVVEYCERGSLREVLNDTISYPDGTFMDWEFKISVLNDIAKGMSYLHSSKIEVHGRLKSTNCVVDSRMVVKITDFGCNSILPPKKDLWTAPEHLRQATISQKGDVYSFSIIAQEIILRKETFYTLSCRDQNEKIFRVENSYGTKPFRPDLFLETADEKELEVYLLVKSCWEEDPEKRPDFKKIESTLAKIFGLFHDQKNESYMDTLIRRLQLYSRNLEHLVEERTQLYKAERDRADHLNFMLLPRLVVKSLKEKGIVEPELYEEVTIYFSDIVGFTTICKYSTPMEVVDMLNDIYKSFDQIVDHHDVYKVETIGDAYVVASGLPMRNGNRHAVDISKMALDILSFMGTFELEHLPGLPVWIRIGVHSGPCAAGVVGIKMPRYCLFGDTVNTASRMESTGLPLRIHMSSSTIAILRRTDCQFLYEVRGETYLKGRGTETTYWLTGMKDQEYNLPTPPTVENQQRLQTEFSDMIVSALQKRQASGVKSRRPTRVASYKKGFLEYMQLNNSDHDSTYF

| SMILES | % Inhibition of ST-activated guanylate cyclase activity [2] [%] | effect on basal guanylate cyclase activity (in words) ([2]; 1 mM) | inhibition at 1000 µM [2, 7] [%] | inhibition at 1000 µM [2, 8] [%] | effect on basal intestinal fluid level (in words) ([3]; sc) | intestinal fluid ratio (intestinal weight to remaining body weight), ST-induced ([4]; mouse, in vivo) | effect on ST-induced secretion (in words) ([4]; mouse, in vivo, sc) | intestinal fluid ratio (intestinal weight to remaining body weight), ST-induced ([4]; mouse, in vivo, sc) | Intestinal:Body Wt. Ratio, 8-bromo cyclic GMP-induced [5] | Intestinal:Body Wt. Ratio, 8-bromo cyclic GMP-induced ([5]; sc) | effect on 8-bromo cyclic GMP-induced intestinal secretion (in words) [5] | other results |
| --- | --- | --- | --- | --- | --- | --- | --- | --- | --- | --- | --- | --- |
| O[C@H](CS)[C@H](O)CS (racemic) [dithiothreitol] |  |  |  |  |  |  |  |  |  |  |  | effect on biological activity of ST (in words) [1]: loses biological activity promptly |
| CC(=O)N[C@@H](CS)C(=O)O [Acetylcysteine, acetylcysteine] | 14 | did not alter basal guanylate cyclase activity; also recorded: None of the other sulfhydryl compounds (1 mM) affected basal enzyme activity | 11 to 21 | 0 | not affected | 0.0796±0.005 and 0.1061±0.005 | no inhibition | 0.0804±0.003 | 0.1028 ± 0.003 | 0.1024 ± 0.003 |  | % Inhibition of ST-activated guanylate cyclase activity ([2]; listed as acetylcysteine): 15%; effect on basal fluid level (in words) ([3]; sc): not altered; effect on ST-induced responses (in words) ([4]; mouse, in vivo): No significant inhibition |
| NCCSSCCN [Cystamine, cystamine] |  |  | 73 | 45 | did not significantly alter basal intestinal fluid levels |  | reduce ST-induced intestinal secretion; also recorded: significantly reduce secretion; also recorded: significantly reduced ST-induced secretion | 0.0935±0.003 and 0.1154± 0.006 | 0.1188 ± 0.003 | 0.1115 ± 0.003 | no effect | inhibition at 10000 µM [2, 9]: 82%; inhibition at 10000 µM [2, 10]: 54%; inhibition at 100 µM ([2]; read-out: reduction in basal guanylate cyclase activity, basal): 13%; inhibition at 100 µM ([2]; read-out: reduction of ST-induced guanylate cyclase activity, ST-activated (6 ST units/ml)): 32%; effect on guanylate cyclase (in words) [6]: very marked effects on guanylate cyclase activity; also recorded: almost completely inactivate; effect on ST-induced secretion (in words) ([4]; mouse, in vivo): did not significantly affect ST-induced secretion |
| N[C@@H](CCSC[C@H](N)C(=O)O)C(=O)O [Cystathionine, cystathionine] |  |  |  |  |  |  |  |  | 0.1043 ± 0.002 | 0.1175 ± 0.004 | no alteration | effect on ST-activated guanylate cyclase activity (in words) ([2]; ST-activated, concentration not given): no effect; effect on basal guanylate cyclase activity (in words) ([2]; concentration not given): no effect; effect on basal responses (in words) [3]: no alteration; effect on basal secretion (in words) ([3]; sc): nor alter the basal secretory ratio; effect on ST-induced fluid secretion (in words) ([4]; mouse, in vivo): no alteration; effect on ST-induced fluid secretion (in words) ([4]; mouse, in vivo, sc): did not inhibit ST-induced fluid secretion |
| NCCS [Cysteamine, cysteamine] | 21 | did not alter basal guanylate cyclase activity; also recorded: did not affect basal activity | 11 to 21 | 0 |  | 0.0804±0.005 |  | 0.0765±0.003 and 0.0840 ± 0.005 | 0.1106 ± 0.010 | 0.1071 ± 0.005 |  | % Inhibition of ST-activated guanylate cyclase activity ([2]; listed as cysteamine): 21%; inhibition at 10000 µM [2, 9]: 63%; inhibition at 10000 µM [2, 10]: 15%; effect on basal secretion (in words) [3]: did not alter basal secretion; effect on basal fluid level (in words) ([3]; sc): not affected; P of inhibition of ST-induced secretion (FIG. 2) ([4]; mouse, in vivo): < 0.001; effect on ST-induced fluid secretion (in words) ([4]; mouse, in vivo): most effective inhibitory agent; effect on ST-induced secretion (in words) ([4]; mouse, in vivo): significantly reduced; also recorded: reduced secretion; intestinal-fluid ratio ± SEM ([4]; mouse, in vivo): .125 ± 0.003; intestinal-fluid ratio ± SEM, experiment #1 ([4]; mouse, in vivo): .127 ± .007; intestinal-fluid ratio ± SEM, experiment #2 ([4]; mouse, in vivo): .119 ± .006; effect on ST-induced ratio (in words) ([4]; mouse, in vivo, sc): not significantly changed |
| N[C@H](CS)C(=O)O [D-cysteine] | 16 | did not alter basal guanylate cyclase activity; also recorded: None of the other sulfhydryl compounds (1 mM) affected basal enzyme activity | 11 to 21 | 0 | No effect on basal fluid level | 0.0768±0.002 and 0.1121±0.005 |  |  | 0.1191 ± 0.006 | 0.1155 ± 0.005 |  | effect on ST-induced fluid responses (in words) ([4]; mouse, in vivo, sc): neither D- or L-cysteine inhibited ST-induced fluid responses |
| N[C@H](CSSC[C@@H](N)C(=O)O)C(=O)O [D-cystine] |  | neither drug affected basal activity | 33 | 0 |  | 0.1034±0.004 and 0.1197±0.004 | neither compound reduced intestinal secretion | 0.1092±0.011 | 0.1048 ± 0.004 | 0.1001 ± 0.005 | Neither compound altered cyclic GMP-induced intestinal secretion | effect on ST-induced guanylate cyclase activity (in words) ([2]; ST-activated, 1 mM): significantly reduced; effect on basal guanylate cyclase activity (in words) ([2]; concentration not given): Neither compound inhibited basal guanylate cyclase activity; effect on basal secretion (in words) ([3]; sc): Neither agent given s.c. or i.g. significantly altered basal secretion; effect on ST-induced intestinal secretion (in words) ([4]; mouse, in vivo): significantly reduced |
| N[C@@H](CS)C(=O)O [L-cysteine] | 11 | did not alter basal guanylate cyclase activity; also recorded: None of the other sulfhydryl compounds (1 mM) affected basal enzyme activity | 11 to 21 | 0 | No effect on basal fluid level | 0.0680±0.001 and 0.0877±0.006 |  |  | 0.1097 ± 0.004 | 0.1051 ± 0.006 |  | effect on ST-induced fluid responses (in words) ([4]; mouse, in vivo, sc): neither D- or L-cysteine inhibited ST-induced fluid responses |
| N[C@@H](CSSC[C@H](N)C(=O)O)C(=O)O [L-cystine] |  | neither drug affected basal activity | 39 | 0 |  | 0.0940±0.004 and 0.1288±0.003 | neither compound reduced intestinal secretion | 0.1115±0.006 | 0.1191 ± 0.004 | 0.1043 ± 0.004 | Neither compound altered cyclic GMP-induced intestinal secretion | effect on ST-induced guanylate cyclase activity (in words) ([2]; ST-activated, 1 mM): significantly reduced; effect on basal guanylate cyclase activity (in words) ([2]; concentration not given): Neither compound inhibited basal guanylate cyclase activity; effect on basal secretion (in words) ([3]; sc): Neither agent given s.c. or i.g. significantly altered basal secretion; effect on ST-induced intestinal secretion (in words) ([4]; mouse, in vivo): significantly reduced |
| c1ccc2c(CC3=NCCN3)cccc2c1 [Naphazoline, naphazoline] |  |  |  |  |  |  |  |  |  |  |  | effect against ST (in words) ([4]; 10 mM): effective; intestinal-fluid ratio ± SEM, experiment #1 ([4]; mouse, in vivo): .150 ± .005; intestinal-fluid ratio ± SEM, experiment #2 ([4]; mouse, in vivo): .123 ± .005; death of mice (N = 3): ALL DEAD; margin to lethal dose (in words) (mouse, in vivo): only one log less than a lethal dose |
| NCCCNCCSP(=O)(O)O [S-2-(3-aminopropylamino) ethyl phosphorothioic acid] |  |  |  |  |  |  |  |  |  |  |  | Ratio ± SEM, ST-induced ([4]; mouse, in vivo): 0.1034 ± 0.008 and 0.0685 ± 0.003 |
| N[C@@H](CS[35S]C[C@H](N)C(=O)O)C(=O)O [^35 S-cystine] |  |  |  |  |  |  |  |  |  |  |  | effect on guanylate cyclase (in words) [6]: reversible loss of enzyme activity |
| COc1ccc2cc3[n+](cc2c1OC)CCc1cc2c(cc1-3)OCO2 [berberine] |  |  |  |  |  |  |  |  |  |  |  | intestinal-fluid ratio ± SEM ([4]; mouse, in vivo): .122 ± 0.003; intestinal-fluid ratio, pre-treatment ([4]; mouse, in vivo): .122 ± .004 |
